Each compound was assayed against T1, BTK (Homo sapiens, UniProt Q06187) (assay: BTK degradation activity test in Mino cells (Westernblot or Elisa)). Details: 24-72 h incubation.
T1 construct: endogenous in cells; host or cells: Mino cells
Assay type: cell-based
Procedure: The Mino cell line cells are 0.5˜1 million/well in 6-well plates. The compounds are diluted to different concentrations, added to the plate, and after 24-72 h of incubation, the cells are collected. After the cells were lysed, the total protein concentration in each well was determined with a BCA kit. The amount of BTK is determined using the Westernblot or Elisa method.

T1 sequence (Q06187 whole entry): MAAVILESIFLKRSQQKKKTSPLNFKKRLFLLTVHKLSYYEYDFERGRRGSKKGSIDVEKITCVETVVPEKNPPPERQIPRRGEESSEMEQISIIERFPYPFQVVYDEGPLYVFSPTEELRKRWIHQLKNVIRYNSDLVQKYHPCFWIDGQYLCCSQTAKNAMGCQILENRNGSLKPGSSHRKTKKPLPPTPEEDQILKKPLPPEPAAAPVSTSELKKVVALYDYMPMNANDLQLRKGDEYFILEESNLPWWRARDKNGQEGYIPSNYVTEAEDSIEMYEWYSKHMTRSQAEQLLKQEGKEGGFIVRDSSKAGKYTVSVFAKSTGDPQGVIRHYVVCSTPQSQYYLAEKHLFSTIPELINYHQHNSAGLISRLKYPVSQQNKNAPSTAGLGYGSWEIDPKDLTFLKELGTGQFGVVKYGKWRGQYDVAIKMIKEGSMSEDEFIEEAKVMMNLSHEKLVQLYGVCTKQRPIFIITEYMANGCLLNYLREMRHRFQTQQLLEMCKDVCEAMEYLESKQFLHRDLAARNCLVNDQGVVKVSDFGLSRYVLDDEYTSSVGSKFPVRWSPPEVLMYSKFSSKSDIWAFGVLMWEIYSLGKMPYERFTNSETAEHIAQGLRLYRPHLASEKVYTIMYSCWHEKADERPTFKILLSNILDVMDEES

| SMILES | DC50 [nM] |
| --- | --- |
| NC(=O)c1nnc(-c2cccnc2)nc1Nc1ccc(C2CCN(CC3CCN(c4ccc5c(c4)C(=O)N(C4CCC(=O)NC4=O)C5=O)C3)CC2)cc1 (stereo not shown) [Compound 026, 5-((4-(1-((1-(2-(2,6-dioxopiperidin-3-yl)-1,3-dioxoisoindolin-5-yl)pyrrolidin-3-yl)methyl)piperidin-4-yl)phenyl)amino)-3-(pyridin-3-yl)-1,2,4-triazine-6-carboxamide] | < 10 |
| NC(=O)c1nnc(Oc2cccc(O)c2)nc1Nc1ccc(C2CCN(CC3CCN(c4ccc5c(c4)C(=O)N(C4CCC(=O)NC4=O)C5=O)C3)CC2)cc1 (stereo not shown) [Compound 027, 5-((4-(m-((1-(2-(2,6-dioxopiperidin-3-yl)-1,3-dioxoisoindolin-5-yl)pyrrolidin-3-yl)methyl)piperidin-4-yl)phenyl)amino)-3-(3-hydroxyphenoxy)-1,2,4-triazine-6-carboxamide] | < 10 |
| NC(=O)c1nnc(Oc2cccc(F)c2F)nc1Nc1ccc(C2CCN(CC3CCN(c4ccc5c(c4)C(=O)N(C4CCC(=O)NC4=O)C5=O)C3)CC2)cc1 (stereo not shown) [Compound 028, 3-(2,3-difluorophenoxy)-5-((4-(1-((1-(2-(2,6-dioxopiperidin-3-yl)-1,3-dioxoisoindolin-5-yl)pyrrolidin-3-yl)methyl)piperidin-4-yl)phenyl)amino)-1,2,4-triazine-6-carboxamide] | < 10 |
| NC(=O)c1nnc(N2CCC[C@@H](N)C2)nc1Nc1ccc(C2CCN(CC3CCN(c4ccc5c(c4)C(=O)N(C4CCC(=O)NC4=O)C5=O)C3)CC2)cc1 (stereo partly drawn) [Compound 029, 3-((R)-3-aminopiperidin-1-yl)-5-((4-(1-((1-(2-(2,6-dioxopiperidin-3-yl)-1,3-dioxoisoindolin-5-yl)pyrrolidin-3-yl)methyl)piperidin-4-yl)phenyl)amino)-1,2,4-triazine-6-carboxamide] | < 10 |
| NC(=O)c1nnc(N[C@H]2CCCC[C@H]2N)nc1Nc1ccc(C2CCN(CC3CCN(c4ccc5c(c4)C(=O)N(C4CCC(=O)NC4=O)C5=O)C3)CC2)cc1 (stereo partly drawn) [Compound 030, 3-(((1S,2R)-2-aminocyclohexyl)amino)-5-((4-(1-((1-(2-(2,6-dioxopiperidin-3-yl)-1,3-dioxoisoindolin-5-yl)pyrrolidin-3-yl)methyl)piperidin-4-yl)phenyl)amino)-1,2,4-triazine-6-carboxamide] | < 10 |
| NC(=O)c1nnc(N2CCNCC2)nc1Nc1ccc(C2CCN(CC3CCN(c4ccc5c(c4)C(=O)N(C4CCC(=O)NC4=O)C5=O)C3)CC2)cc1 (stereo not shown) [Compound 031, 5-((4-(1-((1-(2-(2,6-dioxopiperidin-3-yl)-1,3-dioxoisoindolin-5-yl)pyrrolidin-3-yl)methyl)piperidin-4-yl)phenyl)amino)-3-(piperazin-1-yl)-1,2,4-triazine-6-carboxamide] | < 10 |
| NC(=O)c1cnc(N[C@H]2CCCC[C@H]2N)nc1Nc1ccc(C2CCN(CC3CCN(c4ccc5c(c4)C(=O)N(C4CCC(=O)NC4=O)C5=O)C3)CC2)cc1 (stereo partly drawn) [Compound 032, 2-(((1S,2R)-2-aminocyclohexyl)amino)-4-((4-(1-((1-(2-(2,6-dioxopiperidin-3-yl)-1,3-dioxoisoindolin-5-yl)pyrrolidin-3-yl)methyl)piperidin-4-yl)phenyl)amino) pyrimidine-5-carboxamide] | < 10 |
| NC(=O)c1cnc(N2CCCCC2)nc1Nc1ccc(N2CCN(CC3CCN(c4ccc5c(c4)C(=O)N(C4CCC(=O)NC4=O)C5=O)C3)CC2)c(F)c1 (stereo not shown) [Compound 034, 4-((4-(4-((1-(2-(2,6-dioxopiperidin-3-yl)-1,3-dioxoisoindolin-5-yl)pyrrolidin-3-yl)methyl)piperazin-1-yl)-3-fluorophenyl)amino)-2-(piperidin-1-yl) pyrimidine-5-carboxamide] | < 10 |
| NC(=O)c1cnc(N2CCC[C@@H](O)C2)nc1Nc1ccc(C2CCN(CC3CCN(c4ccc5c(c4)C(=O)N(C4CCC(=O)NC4=O)C5=O)C3)CC2)cc1 (stereo partly drawn) [Compound 035, 4-((4-(1-((1-(2-(2,6-dioxopiperidin-3-yl)-1,3-dioxoisoindolin-5-yl)pyrrolidin-3-yl)methyl)piperidin-4-yl)phenyl)amino)-2-((R)-3-hydroxypiperidin-1-yl) pyrimidine-5-carboxamide] | < 10 |
| NC(=O)c1cnc(N2CCCCC2)nc1Nc1ccc(C2CCN(CC3CCN(c4ccc5c(c4)C(=O)N(C4CCC(=O)NC4=O)C5=O)C3)CC2)c(F)c1 (stereo not shown) [Compound 036, 4-((4-(1-((1-(2-(2,6-dioxopiperidin-3-yl)-1,3-dioxoisoindolin-5-yl)pyrrolidin-3-yl)methyl)piperidin-4-yl)-3-fluorophenyl)amino)-2-(piperidin-1-yl) pyrimidine-5-carboxamide] | < 10 |

Next, values leading:

| DC50 [nM] | SMILES |
| --- | --- |
| < 10 | NC(=O)c1nnc(N2CCCCC2)nc1Nc1ccc(N2CCN(CC3CN(c4ccc5c(c4)C(=O)N(C4CCC(=O)NC4=O)C5=O)C3)CC2)cc1 (stereo not shown) [Compound 006, 5-((4-(4-((1-(2-(2,6-dioxopiperidin-3-yl)-1,3-dioxoisoindolin-5-yl)azetidin-3-yl)methyl)piperazin-1-yl)phenyl)amino)-3-(piperidin-1-yl)-1,2,4-triazine-6-carboxamide] |
| < 10 | NC(=O)c1nnc(N2CCCCC2)nc1Nc1ccc(C2CCN(CC3CN(c4ccc5c(c4)C(=O)N(C4CCC(=O)NC4=O)C5=O)C3)CC2)cc1 (stereo not shown) [Compound 008, 5-((4-(1-((1-(2-(2,6-dioxopiperidin-3-yl)-1,3-dioxoisoindolin-5-yl)azetidin-3-yl)methyl)piperidin-4-yl)phenyl)amino)-3-(piperidin-1-yl)-1,2,4-triazine-6-carboxamide] |
| < 10 | NC(=O)c1nnc(N2CCCCC2)nc1Nc1ccc(C2CCN(CC3CCN(c4ccc5c(c4)CN(C4CCC(=O)NC4=O)C5=O)C3)CC2)cc1 (stereo not shown) [Compound 009, 5-((4-(1-((1-(2-(2,6-dioxopiperidin-3-yl)-1-oxoisoindolin-5-yl)pyrrolidin-3-yl)methyl)piperidin-4-yl)phenyl)amino)-3-(piperidin-1-yl)-1,2,4-triazine-6-carboxamide] |
| < 10 | NC(=O)c1nnc(N2CCCCC2)nc1Nc1ccc(C2CCN(CC3CCN(c4cc5c(cc4F)C(=O)N(C4CCC(=O)NC4=O)C5)C3)CC2)cc1 (stereo not shown) [Compound 010, 5-((4-(1-((1-(2-(2,6-dioxopiperidin-3-yl)-6-fluoro-1-oxoisoindolin-5-yl)pyrrolidin-3-yl)methyl)piperidin-4-yl)phenyl)amino)-3-(piperidin-1-yl)-1,2,4-triazine-6-carboxamide] |
| < 10 | NC(=O)c1nnc(N2CCC[C@@H](O)C2)nc1Nc1ccc(C2CCN(CC3CCN(c4ccc5c(c4)C(=O)N(C4CCC(=O)NC4=O)C5=O)C3)CC2)cc1 (stereo partly drawn) [Compound 015, 5-((4-(1-((1-(2-(2,6-dioxopiperidin-3-yl)-1,3-dioxoisoindolin-5-yl)pyrrolidin-3-yl)methyl)piperidin-4-yl)phenyl)amino)-3-((R)-3-hydroxypiperidin-1-yl)-1,2,4-triazine-6-carboxamide] |
| < 10 | CC[C@H](Nc1nnc(C(N)=O)c(Nc2ccc(C3CCN(CC4CCN(c5ccc6c(c5)C(=O)N(C5CCC(=O)NC5=O)C6=O)C4)CC3)cc2)n1)C(N)=O (stereo partly drawn) [Compound 017, 3-(((S)-1-amino-1-oxobutan-2-yl)amino)-5-((4-(1-((1-(2-(2,6-dioxopiperidin-3-yl)-1,3-dioxoisoindolin-5-yl)pyrrolidin-3-yl)methyl)piperidin-4-yl)phenyl)amino)-1,2,4-triazine-6-carboxamide] |
| < 10 | CN1CCN(c2nnc(C(N)=O)c(Nc3ccc(C4CCN(CC5CCN(c6ccc7c(c6)C(=O)N(C6CCC(=O)NC6=O)C7=O)C5)CC4)cc3)n2)CC1 (stereo not shown) [Compound 018, 5-((4-(1-((1-(2-(2,6-dioxopiperidin-3-yl)-1,3-dioxoisoindolin-5-yl)pyrrolidin-3-yl)methyl)piperidin-4-yl)phenyl)amino)-3-(4-methylpiperazin-1-yl)-1,2,4-triazine-6-carboxamide] |
| < 10 | N#Cc1cccc(Nc2nnc(C(N)=O)c(Nc3ccc(C4CCN(CC5CCN(c6ccc7c(c6)C(=O)N(C6CCC(=O)NC6=O)C7=O)C5)CC4)cc3)n2)c1 (stereo not shown) [Compound 020, 3-((3-cyanophenyl)amino)-5-((4-(1-((1-(2-(2,6-dioxopiperidin-3-yl)-1,3-dioxoisoindolin-5-yl)pyrrolidin-3-yl)methyl)piperidin-4-yl)phenyl)amino)-1,2,4-triazine-6-carboxamide] |
| < 10 | NC(=O)c1nnc(Nc2ccccn2)nc1Nc1ccc(C2CCN(CC3CCN(c4ccc5c(c4)C(=O)N(C4CCC(=O)NC4=O)C5=O)C3)CC2)cc1 (stereo not shown) [Compound 021, 5-((4-(1-((1-(2-(2,6-dioxopiperidin-3-yl)-1,3-dioxoisoindolin-5-yl)pyrrolidin-3-yl)methyl)piperidin-4-yl)phenyl)amino)-3-(pyridin-2-ylamino)-1,2,4-triazine-6-carboxamide] |
| < 10 | NC(=O)c1nnc(N2CC[C@@H](O)C2)nc1Nc1ccc(C2CCN(CC3CCN(c4ccc5c(c4)C(=O)N(C4CCC(=O)NC4=O)C5=O)C3)CC2)cc1 (stereo partly drawn) [Compound 022, 5-((4-(1-((1-(2-(2,6-dioxopiperidin-3-yl)-1,3-dioxoisoindolin-5-yl)pyrrolidin-3-yl)methyl)piperidin-4-yl)phenyl)amino)-3-((R)-3-hydroxypyrrolidin-1-yl)-1,2,4-triazine-6-carboxamide] |
| < 10 | NC(=O)c1nnc(-c2nccs2)nc1Nc1ccc(C2CCN(CC3CCN(c4ccc5c(c4)C(=O)N(C4CCC(=O)NC4=O)C5=O)C3)CC2)cc1 (stereo not shown) [Compound 024, 5-((4-(1-((1-(2-(2,6-dioxopiperidin-3-yl)-1,3-dioxoisoindolin-5-yl)pyrrolidin-3-yl)methyl)piperidin-4-yl)phenyl)amino)-3-(thiazol-2-yl)-1,2,4-triazine-6-carboxamide] |
| < 10 | NC(=O)c1nnc(-c2ncc[nH]2)nc1Nc1ccc(C2CCN(CC3CCN(c4ccc5c(c4)C(=O)N(C4CCC(=O)NC4=O)C5=O)C3)CC2)cc1 (stereo not shown) [Compound 025, 5-((4-(1-((1-(2-(2,6-dioxopiperidin-3-yl)-1,3-dioxoisoindolin-5-yl)pyrrolidin-3-yl)methyl)piperidin-4-yl)phenyl)amino)-3-(1H-imidazol-2-yl)-1,2,4-triazine-6-carboxamide] |

— patent US20260167620A1, “MULTIFUNCTIONAL COMPOUND CAPABLE OF DEGRADING BTK KINASE, AND COMPOSITION AND USE” (HANGZHOU HEALZEN THERAPEUTICS CO., LTD., priority 2021, published 2026)
